Data: PMC4550851, “Potential analgesic effects of a novel N-acylethanolamine acid amidase inhibitor F96 through PPAR-α” (Scientific Reports, 2015)

How the values were obtained:
Assay type in all cases: biochemical
[1] = molecular target: T1, N-acylethanolamine acid amidase (NAAA) (Homo sapiens, UniProt Q02083); experiment: enzyme activity assay, IC50
T1 sequence (Q02083 29-125): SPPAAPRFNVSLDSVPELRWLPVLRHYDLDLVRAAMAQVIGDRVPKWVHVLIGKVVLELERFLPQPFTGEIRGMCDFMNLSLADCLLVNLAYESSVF
T1 sequence (Q02083 126-359): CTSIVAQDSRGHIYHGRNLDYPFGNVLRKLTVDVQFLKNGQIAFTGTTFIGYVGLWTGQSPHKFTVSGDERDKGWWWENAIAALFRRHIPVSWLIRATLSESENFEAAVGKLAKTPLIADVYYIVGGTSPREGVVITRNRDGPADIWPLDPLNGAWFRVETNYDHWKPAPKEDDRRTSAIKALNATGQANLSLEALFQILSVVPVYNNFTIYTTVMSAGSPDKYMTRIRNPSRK

[2] = molecular target: T2, N-acylethanolamine acid amidase (NAAA) (Rattus norvegicus, UniProt Q5KTC7); experiment: enzyme activity assay with extracted recombinant rNAAA, heptadecenoylethanolamide substrate, concentration-response
T2 construct: extracted recombinant rat NAAA (rNAAA)
T2 sequence (Q5KTC7 34-130): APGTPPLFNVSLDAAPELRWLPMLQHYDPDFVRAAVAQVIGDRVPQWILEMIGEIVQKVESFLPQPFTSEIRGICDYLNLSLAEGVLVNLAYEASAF
T2 sequence (Q5KTC7 131-362): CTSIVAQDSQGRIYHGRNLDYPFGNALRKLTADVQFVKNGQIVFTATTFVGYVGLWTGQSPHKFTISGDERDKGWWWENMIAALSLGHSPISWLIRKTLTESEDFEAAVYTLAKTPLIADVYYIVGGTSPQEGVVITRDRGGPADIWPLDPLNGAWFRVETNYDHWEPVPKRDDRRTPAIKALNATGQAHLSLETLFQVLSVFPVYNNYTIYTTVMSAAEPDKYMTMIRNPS

[3] = molecular target: T3, FAAH (Rattus norvegicus, UniProt P97612); experiment: enzyme activity assay with extracted recombinant rFAAH, anandamide substrate (selectivity counter-assay)
T3 construct: extracted recombinant rat FAAH (rFAAH)
T3 sequence (P97612 1-579): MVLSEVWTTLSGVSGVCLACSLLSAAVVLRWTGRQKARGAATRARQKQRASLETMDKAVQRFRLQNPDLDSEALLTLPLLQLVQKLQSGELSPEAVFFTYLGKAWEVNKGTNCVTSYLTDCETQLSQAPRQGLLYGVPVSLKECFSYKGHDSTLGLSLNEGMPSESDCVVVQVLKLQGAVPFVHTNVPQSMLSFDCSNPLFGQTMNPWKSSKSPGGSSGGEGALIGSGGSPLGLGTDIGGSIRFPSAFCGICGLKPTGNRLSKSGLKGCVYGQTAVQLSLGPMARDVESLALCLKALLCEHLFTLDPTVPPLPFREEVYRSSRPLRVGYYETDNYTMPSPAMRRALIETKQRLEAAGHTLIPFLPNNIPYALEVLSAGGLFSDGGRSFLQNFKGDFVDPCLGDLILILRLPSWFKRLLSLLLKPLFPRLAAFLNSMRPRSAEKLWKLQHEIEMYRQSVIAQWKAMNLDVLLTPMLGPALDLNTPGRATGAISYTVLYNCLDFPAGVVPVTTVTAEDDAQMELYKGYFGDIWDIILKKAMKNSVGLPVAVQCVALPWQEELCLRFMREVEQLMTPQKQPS

For `O=C(CCCCCc1ccccc1)N1CCOC1=O` [F96, 3-(6-phenylhexanoyl)oxazolidin-2-one], the IC50 [1] was 269 ± 43.8 nM, the IC50 [2] was 269 ± 22.4 nM and the IC50 [3] was 42000 ± 1920 nM.
